Entries after “also recorded” stand apart in the source; their conditions may differ. * marks the point of attachment. C16 alkyl = CCCCCCCCCCCCCCCC*
Columns and labels:
MPO+ neutrophils = assay: Immunofluorescence quantification of MPO+ neutrophils in regenerated bladder tissue; assay type: in vivo, rat
Protocol: (§1) Athymic female rats (weighing ˜200 g and 8-10 weeks old; National Cancer Institute Animal Production Program) underwent bladder augmentation (ref. 15; herein incorporated by reference in its entirety). Athymic rats were chosen for this study to solely examine the innate immune response to inflammation without influence of the adaptive immune response. In order to induce anesthesia, animals were given intraperitoneal injections of 60 mg/kg ketamine and 5 mg/kg xylazine. A second injection consisting of Buprenex (1 mg/kg) was administered subcutaneously to alleviate any pain/discomfort during and following surgical procedures. An approximate 1.5 cm midline vertical skin incision was created to expose the abdominal fascia and muscles. This was immediately followed by the separation of the wall leading to the identification of the bladder. An approximate 70% supratrigonal cystectomy was performed from anterior to posterior creating a clamshell. Immediately prior to bladder augmentation procedures, samples of the pro-inflammatory biological scaffold, small intestinal submucosa (SIS (0.5×0.5 cm); Cook Biotech.) (refs. 12,13,16; herein incorporated by reference in their entireties) were thoroughly dip-coated separately in one of the previously described AIF-PAs following gelation procedures. The sections of SIS were dip-coated for approximately 20 seconds and allowed to adhere to the SIS for an additional 30 seconds. Dip-coating procedures were performed at room temperature in air. The cystectomized bladder defect was then augmented with: 1) SIS (non-AIF-PA coated SIS; n=8 animals over both time-points); 2) AIF-PA1 coated SIS (denoted as SIS/AIF-PA1; n=11 animals over both time-points); 3) AIF-PA2 coated SIS (denoted as SIS/AIF-PA2; n=8 animals over both time-points); 4) AIF-PA3 coated SIS (denoted as SIS/AIF-PA3; n=3); 5) AIF-PA4 coated SIS (denoted as SIS/AIF-PA4; n=3 animals); 6) AIF-PA5 coated SIS (denoted as SIS/AIF-PA5; n=3 animals); and 7) AIFC-PA6 coated SIS (denoted as SIS/AIFC-PA6; n=9 animals over both time-points). The bladder was finally covered with omentum after being closed in a watertight manner utilizing 7-0 polyglactin suture. The abdominal wall was then closed in a single layer with 5-0 ethibond running suture and the skin re-approximated with 9 mm autoclips. Each group was sacrificed at 10 day and 5 week time-points.
(§2) Tissue sections comprised of SIS alone, SIS/AIF-PA1, SIS/AIF-PA2, and SIS/AIF-PA6 augmentations were subjected to immunofluorescence staining by initially undergoing antigen retrieval which consisted of 15 min of boiling in citrate buffer (0.01M citrate solution, pH 6.0 with 0.05% Tween-20) followed by cooling at room temperature for approximately 20 minutes. The antibody staining process consisted of a blocking step for 15 min in bovine serum albumin (BSA, 5 mg/ml) followed by a 40 minutes incubation at room temperature with the primary antibody. After washing with DPBS, slides were incubated for 30 min with a secondary antibody and eventually rinsed with DPBS and air dried. Slides were mounted with Vectashield (Vector Laboratories). Primary antibodies were directed against epitopes for the inflammatory markers CD68 (macrophage) (refs. 18,19; herein incorporated by reference in their entireties) MPO (neutrophil) (ref. 20; herein incorporated by reference in its entirety) or the inflammation-related proteins IL1β, TNFα, IL-10, IL-13, CD206 (M2 macrophage) (refs. 21-25; herein incorporated by reference in their entireties) and CD86 (M1 macrophage) (ref. 26; herein incorporated by reference in its entirety). Antibodies directed against the ECM in regenerating bladder tissue (including COL4A3 and fibronectin) were also utilized. Alexa Red 555 or FITC conjugated secondary antibodies (Molecular Probes) were utilized for visualization (ref. 15; herein incorporated by reference in its entirety). […]

CD86+ M1 macrophages = assay: M1 macrophage subtype (CD86) distribution in regenerating bladder tissue; assay type: in vivo, rat; settings: for M1 macrophage levels, in words: 10 days to 5 weeks
Protocol: as §1, §2

TNFα = TNFα expression in regenerated bladder tissue (immunofluorescence); assay type: in vivo, rat; settings: for Cytokine expression (shown as percentage of cells staining positive) Pro-inflammatory TNFα: 5 weeks post-augmentation, means ± SE; for percentage of cells staining positive for TNFα: 10 days post-augmentation
Protocol: as §1, §2

[1] = system: Rat Bladder Augmentation Model; assay: Urodynamic testing (UDS) of augmented bladders; assay type: in vivo; settings: for intravesical pressure during voiding: post-augmentation
Protocol: as §1
The bladders of anesthetized athymic rats were exposed through the abdomen as previously described. A 20 gauge cannula (Becton Dickinson and Co.) was delicately placed into the bladder through the dome in order to obtain intravesical measurements. The cannula was connected to the Pump 11 Elite Syringe Pump (Harvard Apparatus) and to a physiological pressure transducer (SP844, MEMSCAP). The pressure transducer was connected to a bridge amplifier (Model FE221; AD Instruments). Continuous reading of the transvesical pressure was measured and plotted using LabChart 7.3 software (AD Instruments). The fill rate for each study ranged from 150-200 uL per minute. Bladder capacity was measured by a modified protocol (ref. 13; herein incorporated by reference in its entirety). Sterile DPBS was injected into the bladder using a 27 gauge needle in 50 μl increments until fluid leakage was observed from the urethra of the animal. The total volume injected was then noted. This procedure was repeated at least three times per animal. Urine was evacuated from the bladder prior to the start of any bladder capacity measurements utilizing a sterile 27 gauge needle. Urodynamic and bladder capacity measurements were performed immediately prior to augmentation procedures and immediately prior to euthanization.
Bladders underwent urodynamic testing (UDS) pre- and post-augmentation. Bladders were gradually filled with sterile saline until a bladder contraction occurred. Bladder pressures rose during the filling until bladder contractions occurred at intravesical pressures of 30-40 cm H2O (FIG. 5, panels A, C, E, and G). […]

[2] = post-augmentation vs pre-augmentation

| Substance | percentage of cells positive for MPO (MPO+ neutrophils; 5 weeks post-augmentation) [%] | percentage of cells positive for MPO (MPO+ neutrophils; 10 days post-augmentation) [%] | number of M1 macrophages (CD86+ M1 macrophages; 5W post-augmentation) [cells/mm^2] | M1 macrophage levels, in words (CD86+ M1 macrophages) | Cytokine expression (shown as percentage of cells staining positive) Pro-inflammatory TNFα (TNFα) [percentage] | percentage of cells staining positive for TNFα (TNFα) [%] | intravesical pressure during voiding [1] | intravesical / voiding pressures, in words [1, 2] | number of M1 macrophages (CD86+ M1 macrophages; 10D post-augmentation) [cells/mm^2] | bladder compliance, in words [1, 2] |
| --- | --- | --- | --- | --- | --- | --- | --- | --- | --- | --- |
| C16-VVVAAAEEEHDMNKVLDL (SEQ ID NO:2) ({C16 alkyl}-VVVAAAEEEHDMNKVLDL-NH2) [SIS/AIF-PA2, anti-inflammatory peptide amphiphile, tested dip-coated on small intestinal submucosa (SIS) scaffold] | 7.2±1.1 | 9.0±0.5 | 389.4±62.6 | Comparatively low numbers | 14.6 ± 1.7 | 26.3±2.5 | approximately 35 cm H2O | very modest decrease in bladder intravesical pressure | – | – |
| C16-VVVAAAEEEKLMSQKMVD (SEQ ID NO:6) ({C16 alkyl}-VVVAAAEEEKLMSQKMVD-NH2) [SIS/AIFC-PA6, reference compound] | 17.6±1.8 | – | 957.7±106.2 | – | 42.8 ± 2.2 | 65.1±5.1 | – | unchanged or even slightly elevated; also recorded: failed to decrease intravesical pressures | 986.9±18.1 | – |
| C16-VVVAAAEEEMQMKKVLDS (SEQ ID NO:1) ({C16 alkyl}-VVVAAAEEEMQMKKVLDS-NH2) [SIS/AIF-PA1, anti-inflammatory peptide amphiphile, tested dip-coated on small intestinal submucosa (SIS) scaffold] | 5.2±0.7 | 6.9±0.7 | 343.4±45.4 | dropped considerably; also recorded: significant decline over time | 17.4 ± 2.9 | 32.8±2.5 | approximately 25 cm H2O | decreased intravesical pressures | – | higher bladder compliance; also recorded: increase in compliance |
